Reference: ChEMBL document CHEMBL4257522, “Synthesis and preliminary anti-inflammatory and anti-bacterial evaluation of some diflunisal aza-analogs” (Medchemcomm, 2018)
The source made the active and inactive calls. No cut-off for these calls is given here.

Assays:
[1] = system: Staphylococcus aureus; assay: Potentiation of tetracycline-induced antibacterial activity against Staphylococcus aureus ATCC 33592 assessed as minimum modulatory concentration up to 32 uM measured after 16 hrs in presence of MIC/4 tetracycline; format: functional; details: ATCC 33592, 16 h, read-out: MEC
[2] = system: Macrophage cell line; assay: Cytotoxicity against human PBMC-differentiated macrophages treated for 24 hrs followed by compound washout and measured after 48 hrs by MTT assay; format: cell-based
[3] = system: Streptococcus pyogenes; assay: Potentiation of methicillin-induced antibacterial activity against Streptococcus pyogenes ATCC 14289 assessed as minimum modulatory concentration up to 32 uM measured after 16 hrs in presence of MIC/4 methicillin; format: functional; details: ATCC 14289, 16 h, read-out: MEC
[4] = system: Macrophage cell line; assay: Induction of IL-1beta production in human PBMC-differentiated macrophages after 24 hrs by ELISA; format: cell-based
[5] = system: Escherichia coli; assay: Potentiation of tetracycline-induced antibacterial activity against Escherichia coli ATCC 43894 assessed as minimum modulatory concentration up to 32 uM measured after 16 hrs in presence of MIC/4 tetracycline; format: functional; details: ATCC 43894, 16 h, read-out: MEC
[6] = system: Staphylococcus aureus; assay: Potentiation of methicillin-induced antibacterial activity against Staphylococcus aureus ATCC 33592 assessed as minimum modulatory concentration up to 32 uM measured after 16 hrs in presence of MIC/4 methicillin; format: functional; details: ATCC 33592, 16 h, read-out: MEC
[7] = system: Klebsiella pneumoniae; assay: Potentiation of ciprofloxacin-induced antibacterial activity against Klebsiella pneumoniae ATCC 13883 assessed as minimum modulatory concentration up to 32 uM measured after 16 hrs in presence of MIC/4 ciprofloxacin; format: functional; details: ATCC 13883, 16 h, read-out: MEC
[8] = system: Klebsiella pneumoniae; assay: Toxicity in Klebsiella pneumoniae ATCC 13883 up to 32 uM measured after 16 hrs; format: organism-based
[9] = system: Klebsiella pneumoniae; assay: Potentiation of tetracycline-induced antibacterial activity against Klebsiella pneumoniae ATCC 13883 assessed as minimum modulatory concentration up to 32 uM measured after 16 hrs in presence of MIC/4 tetracycline; format: functional; details: ATCC 13883, 16 h, read-out: MEC
[10] = system: Pseudomonas aeruginosa; assay: Potentiation of erythromycin-induced antibacterial activity against Pseudomonas aeruginosa ATCC BAA-2108 assessed as minimum modulatory concentration up to 32 uM measured after 16 hrs in presence of MIC/4 erythromycin; format: functional; details: ATCC BAA-2108, 16 h, read-out: MEC
[11] = system: Macrophage cell line; assay: Antiinflammatory activity in human PBMC-differentiated macrophages assessed as inhibition of LPS-induced prostaglandin production at 0.01 to 10 uM measured after 24 hrs by ELISA; format: functional, cell-based
[12] = system: Pseudomonas aeruginosa; assay: Potentiation of methicillin-induced antibacterial activity against Pseudomonas aeruginosa ATCC BAA-2108 assessed as minimum modulatory concentration up to 32 uM measured after 16 hrs in presence of MIC/4 methicillin; format: functional; details: ATCC BAA-2108, 16 h, read-out: MEC
[13] = system: Staphylococcus aureus; assay: Potentiation of geneticin-induced antibacterial activity against Staphylococcus aureus ATCC 33592 assessed as minimum modulatory concentration up to 32 uM measured after 16 hrs in presence of MIC/4 geneticin; format: functional; details: ATCC 33592, 16 h, read-out: MEC
[14] = system: Staphylococcus aureus; assay: Potentiation of erythromycin-induced antibacterial activity against Staphylococcus aureus ATCC 33592 assessed as minimum modulatory concentration up to 32 uM measured after 16 hrs in presence of MIC/4 erythromycin; format: functional; details: ATCC 33592, 16 h, read-out: MEC
[15] = system: Enterococcus faecium; assay: Potentiation of ciprofloxacin-induced antibacterial activity against Enterococcus faecium ATCC 700221 assessed as minimum modulatory concentration up to 32 uM measured after 16 hrs in presence of MIC/4 ciprofloxacin; format: functional; details: ATCC 700221, 16 h, read-out: MEC
[16] = system: Enterococcus faecium; assay: Potentiation of erythromycin-induced antibacterial activity against Enterococcus faecium ATCC 700221 assessed as minimum modulatory concentration up to 32 uM measured after 16 hrs in presence of MIC/4 erythromycin; format: functional; details: ATCC 700221, 16 h, read-out: MEC
[17] = system: Pseudomonas aeruginosa; assay: Potentiation of tetracycline-induced antibacterial activity against Pseudomonas aeruginosa ATCC BAA-2108 assessed as minimum modulatory concentration up to 32 uM measured after 16 hrs in presence of MIC/4 tetracycline; format: functional; details: ATCC BAA-2108, 16 h, read-out: MEC
[18] = system: Streptococcus pyogenes; assay: Potentiation of geneticin-induced antibacterial activity against Streptococcus pyogenes ATCC 14289 assessed as minimum modulatory concentration up to 32 uM measured after 16 hrs in presence of MIC/4 geneticin; format: functional; details: ATCC 14289, 16 h, read-out: MEC
[19] = system: Streptococcus pyogenes; assay: Potentiation of ciprofloxacin-induced antibacterial activity against Streptococcus pyogenes ATCC 14289 assessed as minimum modulatory concentration up to 32 uM measured after 16 hrs in presence of MIC/4 ciprofloxacin; format: functional; details: ATCC 14289, 16 h, read-out: MEC
[20] = system: Escherichia coli; assay: Potentiation of erythromycin-induced antibacterial activity against Escherichia coli ATCC 43894 assessed as minimum modulatory concentration up to 32 uM measured after 16 hrs in presence of MIC/4 erythromycin; format: functional; details: ATCC 43894, 16 h, read-out: MEC
[21] = system: Enterococcus faecium; assay: Potentiation of methicillin-induced antibacterial activity against Enterococcus faecium ATCC 700221 assessed as minimum modulatory concentration up to 32 uM measured after 16 hrs in presence of MIC/4 methicillin; format: functional; details: ATCC 700221, 16 h, read-out: MEC
[22] = system: Klebsiella pneumoniae; assay: Potentiation of geneticin-induced antibacterial activity against Klebsiella pneumoniae ATCC 13883 assessed as minimum modulatory concentration up to 32 uM measured after 16 hrs in presence of MIC/4 geneticin; format: functional; details: ATCC 13883, 16 h, read-out: MEC
[23] = system: Streptococcus pyogenes; assay: Potentiation of erythromycin-induced antibacterial activity against Streptococcus pyogenes ATCC 14289 assessed as minimum modulatory concentration up to 32 uM measured after 16 hrs in presence of MIC/4 erythromycin; format: functional; details: ATCC 14289, 16 h, read-out: MEC
[24] = system: Klebsiella pneumoniae; assay: Potentiation of methicillin-induced antibacterial activity against Klebsiella pneumoniae ATCC 13883 assessed as minimum modulatory concentration up to 32 uM measured after 16 hrs in presence of MIC/4 methicillin; format: functional; details: ATCC 13883, 16 h, read-out: MEC
[25] = system: Enterococcus faecium; assay: Toxicity in Enterococcus faecium ATCC 700221 up to 32 uM measured after 16 hrs; format: organism-based; details: in vitro
[26] = system: Macrophage cell line; assay: Induction of prostaglandin production in human PBMC-differentiated macrophages after 24 hrs by ELISA; format: cell-based
[27] = system: Staphylococcus aureus; assay: Potentiation of ciprofloxacin-induced antibacterial activity against Staphylococcus aureus ATCC 33592 assessed as minimum modulatory concentration up to 32 uM measured after 16 hrs in presence of MIC/4 ciprofloxacin; format: functional; details: ATCC 33592, 16 h, read-out: MEC
[28] = system: Escherichia coli; assay: Toxicity in Escherichia coli ATCC 43894 up to 32 uM measured after 16 hrs; format: organism-based
[29] = system: Escherichia coli; assay: Potentiation of ciprofloxacin-induced antibacterial activity against Escherichia coli ATCC 43894 assessed as minimum modulatory concentration up to 32 uM measured after 16 hrs in presence of MIC/4 ciprofloxacin; format: functional; details: ATCC 43894, 16 h, read-out: MEC
[30] = system: Klebsiella pneumoniae; assay: Potentiation of erythromycin-induced antibacterial activity against Klebsiella pneumoniae ATCC 13883 assessed as minimum modulatory concentration up to 32 uM measured after 16 hrs in presence of MIC/4 erythromycin; format: functional; details: ATCC 13883, 16 h, read-out: MEC
[31] = system: Streptococcus pyogenes; assay: Potentiation of tetracycline-induced antibacterial activity against Streptococcus pyogenes ATCC 14289 assessed as minimum modulatory concentration up to 32 uM measured after 16 hrs in presence of MIC/4 tetracycline; format: functional; details: ATCC 14289, 16 h, read-out: MEC
[32] = system: Enterococcus faecium; assay: Potentiation of tetracycline-induced antibacterial activity against Enterococcus faecium ATCC 700221 assessed as minimum modulatory concentration up to 32 uM measured after 16 hrs in presence of MIC/4 tetracycline; format: functional; details: ATCC 700221, 16 h, read-out: MEC

| SMILES | minimal effective concentration [1] | IC50 [2] | minimal effective concentration [3] | Activity [4] | minimal effective concentration [5] | minimal effective concentration [6] | minimal effective concentration [7] | Activity [8] | minimal effective concentration [9] | minimal effective concentration [10] | minimal effective concentration [12] | minimal effective concentration [13] | minimal effective concentration [14] | minimal effective concentration [15] | minimal effective concentration [16] | minimal effective concentration [17] | minimal effective concentration [18] | minimal effective concentration [19] | minimal effective concentration [20] | minimal effective concentration [21] | other results |
| --- | --- | --- | --- | --- | --- | --- | --- | --- | --- | --- | --- | --- | --- | --- | --- | --- | --- | --- | --- | --- | --- |
| O=C(O)c1cc(O)cnc1-c1ccccc1 | 1 µM | 87.9 µM | 1 µM | Non-Toxic | > 32 µM | 8 µM | > 32 µM | Non-Toxic | > 32 µM | 8 µM | 16 µM | 16 µM | 4 µM | > 32 µM | 2 µM | > 32 µM | 2 µM | > 32 µM | > 32 µM | 2 µM | inhibition [11]: inactive; minimal effective concentration [22]: > 32 µM; minimal effective concentration [23]: 4 µM; minimal effective concentration [24]: > 32 µM; Activity [25]: Non-Toxic; Activity [26]: Non-Toxic; minimal effective concentration [27]: > 32 µM; Activity [28]: Non-Toxic; minimal effective concentration [29]: > 32 µM; minimal effective concentration [30]: > 32 µM; minimal effective concentration [31]: 2 µM; minimal effective concentration [32]: 4 µM |
| O=C(O)c1cc(-c2ccc(F)cc2F)ncc1O | 2 µM | 97.3 µM | 2 µM | Non-Toxic | > 32 µM | 0.5 µM | > 32 µM | Non-Toxic | > 32 µM | 4 µM | 8 µM | 2 µM | 4 µM | > 32 µM | 4 µM | > 32 µM | 8 µM | > 32 µM | > 32 µM | 0.25 µM | minimal effective concentration [22]: > 32 µM; minimal effective concentration [23]: 4 µM; minimal effective concentration [24]: > 32 µM; Activity [25]: Non-Toxic; Activity [26]: Non-Toxic; minimal effective concentration [27]: 16 µM; Activity [28]: Non-Toxic; minimal effective concentration [29]: > 32 µM; minimal effective concentration [30]: > 32 µM; minimal effective concentration [31]: 8 µM; minimal effective concentration [32]: 4 µM |
| O=C(O)c1ccnc(-c2ccccc2)c1O | 2 µM | > 100 µM | 0.5 µM | Non-Toxic | > 32 µM | 0.25 µM | > 32 µM | Non-Toxic | > 32 µM | 4 µM | 8 µM | 0.5 µM | 0.25 µM | > 32 µM | 4 µM | > 32 µM | 2 µM | > 32 µM | > 32 µM | 1 µM | inhibition [11]: inactive; minimal effective concentration [22]: > 32 µM; minimal effective concentration [23]: 2 µM; minimal effective concentration [24]: > 32 µM; Activity [25]: Non-Toxic; Activity [26]: Non-Toxic; minimal effective concentration [27]: 16 µM; Activity [28]: Non-Toxic; minimal effective concentration [29]: > 32 µM; minimal effective concentration [30]: > 32 µM; minimal effective concentration [31]: 1 µM; minimal effective concentration [32]: 2 µM |
| O=C(O)c1cnc2c(F)cc(F)cc2c1O | 2 µM | 96.5 µM | 1 µM | Non-Toxic | > 32 µM | 0.5 µM | > 32 µM | Non-Toxic | > 32 µM | 4 µM | 8 µM | 4 µM | 1 µM | > 32 µM | 4 µM | > 32 µM | 4 µM | > 32 µM | > 32 µM | 0.25 µM | minimal effective concentration [22]: > 32 µM; minimal effective concentration [23]: 8 µM; minimal effective concentration [24]: > 32 µM; Activity [25]: Non-Toxic; Activity [26]: Non-Toxic; minimal effective concentration [27]: 16 µM; Activity [28]: Non-Toxic; minimal effective concentration [29]: > 32 µM; minimal effective concentration [30]: > 32 µM; minimal effective concentration [31]: 4 µM; minimal effective concentration [32]: 4 µM |
| O=C(O)c1cc(O)c(-c2ccccc2)nc1-c1ccccc1 | 8 µM | 92.1 µM | 1 µM | Non-Toxic | > 32 µM | 4 µM | > 32 µM | Non-Toxic | > 32 µM | 8 µM | 16 µM | 8 µM | 8 µM | > 32 µM | 2 µM | > 32 µM | 2 µM | > 32 µM | > 32 µM | 1 µM | inhibition [11]: inactive; minimal effective concentration [22]: > 32 µM; minimal effective concentration [23]: 8 µM; minimal effective concentration [24]: > 32 µM; Activity [25]: Non-Toxic; Activity [26]: Non-Toxic; minimal effective concentration [27]: 16 µM; Activity [28]: Non-Toxic; minimal effective concentration [29]: > 32 µM; minimal effective concentration [30]: > 32 µM; minimal effective concentration [31]: 4 µM; minimal effective concentration [32]: 2 µM |
